We go through 8 compounds from ChEMBL document CHEMBL4680280, “Modulation of the Innate Immune Response by Targeting Toll-like Receptors: A Perspective on Their Agonists and Antagonists” (J Med Chem, 2020).

Test [1] deals with T1, Toll-like receptor 2 (Homo sapiens, UniProt O60603). As to the kind of experiment: Agonist activity at TLR2 in HEK-Blue hTLR2 cells assessed as NF-kappaB activation preincubated for 24 hrs followed by replacement of medium containing compound and measured after 0.5 to 1 hrs by Quanti-blue SEAP assay.
A further test has as its target Toll-like receptor 4 (Homo sapiens, UniProt O00206). The test is described as follows: Modulation of TLR4 in human THP1 cells assessed as reduction in LPS-induced TLR4 expression pretreated for 2 hrs followed by LPS challenge and measured after 18 hrs by flow cytometry. Format: cell-based, THP-1. (Flow cytometry measures light scatter and fluorescence of single cells or particles in a stream.)

Test [2] has as its target T1, Toll-like receptor 2. As to the kind of experiment: Agonist activity at TLR2 (unknown origin).
The target of a further test is Toll-like receptor 5 (Homo sapiens, UniProt O60602). The test is described as follows: Inhibition of Flagellin-BS binding to human TLR5 expressed in HEK293 cells harboring SEAP reporter gene preincubated for 24 hrs followed by compound wash out and subsequent Flagellin-BS addition along with compound and measured after 0.5 hrs by QUANTI-Blue assay. Format: cell-based. In general terms: Reporter assays use an easily measured gene product as a stand-in for the process of interest.
Chain of Toll-like receptor 5 (O60602 whole entry): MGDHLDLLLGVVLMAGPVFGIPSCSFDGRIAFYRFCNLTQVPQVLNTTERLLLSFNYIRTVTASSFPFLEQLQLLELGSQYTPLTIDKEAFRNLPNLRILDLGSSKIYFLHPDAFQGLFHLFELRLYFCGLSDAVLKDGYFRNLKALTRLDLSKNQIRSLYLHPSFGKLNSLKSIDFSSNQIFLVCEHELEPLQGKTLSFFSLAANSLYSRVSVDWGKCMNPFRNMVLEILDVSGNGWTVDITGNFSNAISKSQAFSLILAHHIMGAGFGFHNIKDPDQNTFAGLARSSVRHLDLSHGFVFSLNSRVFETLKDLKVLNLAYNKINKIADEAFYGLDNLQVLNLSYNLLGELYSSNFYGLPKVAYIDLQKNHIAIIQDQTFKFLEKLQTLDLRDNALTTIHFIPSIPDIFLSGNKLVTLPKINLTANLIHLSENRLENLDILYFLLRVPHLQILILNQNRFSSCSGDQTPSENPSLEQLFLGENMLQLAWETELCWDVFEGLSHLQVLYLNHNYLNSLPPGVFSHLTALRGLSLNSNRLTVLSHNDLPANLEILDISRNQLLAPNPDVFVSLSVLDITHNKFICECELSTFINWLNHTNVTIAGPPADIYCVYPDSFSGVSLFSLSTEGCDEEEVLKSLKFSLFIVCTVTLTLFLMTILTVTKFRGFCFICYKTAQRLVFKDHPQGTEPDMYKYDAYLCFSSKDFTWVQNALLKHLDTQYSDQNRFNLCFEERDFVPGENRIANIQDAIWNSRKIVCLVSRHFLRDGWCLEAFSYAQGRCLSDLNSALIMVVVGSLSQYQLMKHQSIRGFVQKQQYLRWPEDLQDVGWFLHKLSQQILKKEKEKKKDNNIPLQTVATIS

T1 sequence (O60603 whole entry): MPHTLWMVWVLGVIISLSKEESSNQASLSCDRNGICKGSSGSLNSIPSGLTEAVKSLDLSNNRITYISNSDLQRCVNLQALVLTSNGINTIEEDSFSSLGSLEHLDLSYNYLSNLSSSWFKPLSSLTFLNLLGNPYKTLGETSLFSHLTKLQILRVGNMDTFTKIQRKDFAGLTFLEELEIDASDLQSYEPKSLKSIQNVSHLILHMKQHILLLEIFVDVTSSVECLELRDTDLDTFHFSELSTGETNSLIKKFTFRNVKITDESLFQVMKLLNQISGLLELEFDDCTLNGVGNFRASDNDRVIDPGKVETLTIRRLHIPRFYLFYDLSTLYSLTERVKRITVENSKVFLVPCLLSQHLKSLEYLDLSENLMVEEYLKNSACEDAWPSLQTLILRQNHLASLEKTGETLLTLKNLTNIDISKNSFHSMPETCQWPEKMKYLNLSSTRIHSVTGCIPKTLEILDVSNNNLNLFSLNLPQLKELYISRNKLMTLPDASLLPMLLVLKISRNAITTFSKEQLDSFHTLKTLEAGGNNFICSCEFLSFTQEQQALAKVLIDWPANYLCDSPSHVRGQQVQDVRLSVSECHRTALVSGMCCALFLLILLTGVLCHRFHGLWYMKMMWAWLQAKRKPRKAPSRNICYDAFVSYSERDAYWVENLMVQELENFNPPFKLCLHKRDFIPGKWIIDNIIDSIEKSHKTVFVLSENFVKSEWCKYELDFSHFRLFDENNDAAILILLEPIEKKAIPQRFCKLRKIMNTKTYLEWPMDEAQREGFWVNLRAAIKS
Chain of Toll-like receptor 4 (O00206 whole entry): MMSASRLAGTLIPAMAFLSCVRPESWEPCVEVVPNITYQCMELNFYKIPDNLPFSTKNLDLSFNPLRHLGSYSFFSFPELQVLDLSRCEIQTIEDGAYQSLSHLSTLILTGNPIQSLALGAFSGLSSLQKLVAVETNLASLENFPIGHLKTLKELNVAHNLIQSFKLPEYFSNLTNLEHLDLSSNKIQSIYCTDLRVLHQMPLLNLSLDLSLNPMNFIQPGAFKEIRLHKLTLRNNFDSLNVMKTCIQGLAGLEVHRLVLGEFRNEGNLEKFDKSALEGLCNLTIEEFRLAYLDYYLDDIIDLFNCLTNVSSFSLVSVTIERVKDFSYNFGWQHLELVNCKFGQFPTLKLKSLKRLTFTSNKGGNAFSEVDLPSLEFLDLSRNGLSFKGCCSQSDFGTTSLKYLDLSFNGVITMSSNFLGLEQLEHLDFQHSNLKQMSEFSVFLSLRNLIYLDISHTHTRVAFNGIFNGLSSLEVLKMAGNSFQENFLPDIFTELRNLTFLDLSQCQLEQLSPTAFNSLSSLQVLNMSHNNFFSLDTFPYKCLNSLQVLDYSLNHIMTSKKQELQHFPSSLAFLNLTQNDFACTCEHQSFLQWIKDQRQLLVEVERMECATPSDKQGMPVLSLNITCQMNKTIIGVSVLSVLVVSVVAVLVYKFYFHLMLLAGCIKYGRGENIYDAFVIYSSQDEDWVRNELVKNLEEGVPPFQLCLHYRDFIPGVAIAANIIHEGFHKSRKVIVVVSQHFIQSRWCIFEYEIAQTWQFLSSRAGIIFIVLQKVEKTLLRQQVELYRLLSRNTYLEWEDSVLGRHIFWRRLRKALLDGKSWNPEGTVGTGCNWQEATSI

`CCOC(=O)c1c(NC(=O)N2CCN(C)CC2)sc2c1CCC2`: at Toll-like receptor 2 [1], the 50% effective concentration (EC50) (commonly the concentration needed to bring the measured effect to its halfway point) is 550 nM.

On to `C=C1C(=O)O[C@@H]2[C@H]3O[C@]3(C)CC/C=C(\C)CC[C@@H]12`, for which the IC50 – broadly, the midpoint of a concentration-inhibition curve – at Toll-like receptor 4 was determined as 1400 nM.

Take `CCCCCCCCCCCCCCCC(=O)OC[C@H](CSC[C@H](NC(C)=O)C(=O)N[C@@H](CO)C(=O)N[C@@H](CCCCN)C(=O)N[C@@H](CCCCN)C(=O)N[C@@H](CCCCN)C(=O)N[C@@H](CCCCN)C(=O)N[C@@H](CO)C(=O)N[C@@H](CC(C)C)C(=O)N[C@H](CN[C@@H](CCSC)C(=O)N[C@@H](Cc1c[nH]c2ccccc12)C(=O)N[C@H](C(=O)N[C@H](C(=O)N[C@@H](CCC(N)=O)C(=O)N[C@H](C(=O)O)C(C)C)[C@@H](C)O)[C@@H](C)CC)CC(C)C)OC(=O)CCCCCCCCCCCCCCC`: the midpoint of the response at Toll-like receptor 2 [2], the EC50, lay at 0.28 nM.

Regarding `CNc1ccc([N+](=O)[O-])cc1-n1cnc(-c2ccc(C(F)(F)F)cc2O)c1`, the half-maximal effective concentration (EC50) at Toll-like receptor 2 [1] came to 4.88 nM.

Regarding `CCCCCCCCCCCCCCCC(=O)OCCCC[C@H](CSC[C@H](N)C(=O)N[C@@H](CO)C(=O)N[C@@H](CCCCN)C(=O)N[C@@H](CCCCN)C(=O)N[C@@H](CCCCN)C(=O)N[C@@H](CCCCN)C(=O)N[C@@H](CO)C(=O)N[C@@H](CC(C)C)C(=O)N[C@H](CN[C@@H](CCSC)C(=O)N[C@@H](Cc1c[nH]c2ccccc12)C(=O)N[C@H](C(=O)N[C@H](C(=O)N[C@@H](CCC(N)=O)C(=O)N[C@H](C(=O)O)C(C)C)[C@@H](C)O)[C@@H](C)CC)CC(C)C)OC(=O)CCCCCCCCCCCCCCC`, the EC50 at Toll-like receptor 2 [2] was 0.3 nM.

For `CCCCCCCCCCCCCCCC(=O)OC[C@H](CSC[C@H](N)C(=O)N[C@@H](CO)C(=O)N[C@@H](CCCCN)C(=O)N[C@@H](CCCCN)C(=O)N[C@@H](CCCCN)C(=O)N[C@@H](CCCCN)C(=O)N[C@@H](CO)C(=O)N[C@@H](CC(C)C)C(=O)N[C@H](CN[C@@H](CCSC)C(=O)N[C@@H](Cc1c[nH]c2ccccc12)C(=O)N[C@H](C(=O)N[C@H](C(=O)N[C@@H](CCC(N)=O)C(=O)N[C@H](C(=O)O)C(C)C)[C@@H](C)O)[C@@H](C)CC)CC(C)C)OC(=O)CCCCCCCCCCCCCCC`, a half-maximal response at Toll-like receptor 2 [2] (EC50) required 0.47 nM.

`CCCCCCCCCCCCCCCC(=O)OCCC[C@H](CSC[C@H](N)C(=O)N[C@@H](CO)C(=O)N[C@@H](CCCCN)C(=O)N[C@@H](CCCCN)C(=O)N[C@@H](CCCCN)C(=O)N[C@@H](CCCCN)C(=O)N[C@@H](CO)C(=O)N[C@@H](CC(C)C)C(=O)N[C@H](CN[C@@H](CCSC)C(=O)N[C@@H](Cc1c[nH]c2ccccc12)C(=O)N[C@H](C(=O)N[C@H](C(=O)N[C@@H](CCC(N)=O)C(=O)N[C@H](C(=O)O)C(C)C)[C@@H](C)O)[C@@H](C)CC)CC(C)C)OC(=O)CCCCCCCCCCCCCCC` had an EC50 at Toll-like receptor 2 [2] of 0.38 nM.

As for `c1ccc(Cn2c(Sc3ncnc4c3sc3ncccc34)nnc2-c2ccncc2)cc1`, the concentration for half-maximal inhibition (IC50) on Toll-like receptor 5 was determined as 850 nM.
